Assay results reported in patent publication US20240116921A1, “LACTAM (HETERO)[…] DERIVATIVES AS INHIBITORS OF ERBB2” (EnLiven Therapeutics, Inc., priority 2020, published 2024).

What was measured:
[1] = molecular target: T1, phosphorylated ERBB2 (pERBB2) (Homo sapiens, UniProt P04626); assay: Detection of phosphorylated ERBB2 (pERBB2) by ELISA in BT-474 cells; assay type: cell-based; conditions: four hours incubation
T1 construct: endogenous in cells; host or cells: BT-474
Protocol: BT-474 cells were seeded into a 96-well at 2.0*10^4 cells/100 μl/well.
Compounds were dissolved and serially diluted in DMSO. The compounds were then were added, mixed, and incubated for four hours at 37° C., 5% CO2. Compounds were added using four-fold dilutions at final concentrations ranging from 10 μM to 0.01 nM.
Following the four hour incubation with compounds, cell lysates were prepared.
Plates were centrifuged for 5 min at 3000 RPM, and supernatant was removed from each well. Cells were washed 3 times by resuspension in 150 μl PBS, followed by centrifugation and removal of the supernatant, as above. […] Cells were incubated with lysis buffer for 1 hour at 4° C., and then stored at −80° C.
Enzyme-linked immunosorbent assays (ELISA) were performed to measure phosphorylated ERBB2 levels. […] The next day, plates were washed with PBS+0.05% Tween20 (PBST). 150 μl of 5% BSA blocking solution was added for 1 hour at room temperature, with shaking. Plates were washed with PBST. Cell lysates were thawed and 100 μl of lysate was added to the ELISA plate. The plates were incubated for 2 hours at room temperature, with shaking. […] Plates were incubated for 1 hour at room temperature, with shaking. Plates were then washed with PBST, and 100 μl TMB substrate solution (R&D Systems, cat #DY999) was added. Plate were incubated in the dark for 20 minutes at room temperature. 50 μl of Stop solution (R&D Systems, cat #DY994) (50 μl) was added to each well and mixed.
Optical density at 450 nm was read on an EnSpire plate reader (Perkin Elmer). The remaining kinase activity by calculated using the following formula: % Relative activity=100×(A450sample−A450LC)/(A450HC−A450LC). The low and high control values (“LC” and “HC”) were generated from lysate from wells without cells or with cells treated with 0.1% DMSO, respectively.

[2] = molecular target: T2, phosphorylated EGFR (pEGFR) (Homo sapiens, UniProt P00533); assay: Detection of phosphorylated EGFR (pEGFR) in EGF-stimulated A431 cells; assay type: cell-based; conditions: A431 cells (10% FBS), 4 hours incubation, EGF 30 ng/mL 10 minutes, AlphaLISA
T2 construct: performed to measure phosphorylated EGFR levels using A431 cells (10% FBS); endogenous in cells; host or cells: A431
T2 sequence (P00533 25-1210): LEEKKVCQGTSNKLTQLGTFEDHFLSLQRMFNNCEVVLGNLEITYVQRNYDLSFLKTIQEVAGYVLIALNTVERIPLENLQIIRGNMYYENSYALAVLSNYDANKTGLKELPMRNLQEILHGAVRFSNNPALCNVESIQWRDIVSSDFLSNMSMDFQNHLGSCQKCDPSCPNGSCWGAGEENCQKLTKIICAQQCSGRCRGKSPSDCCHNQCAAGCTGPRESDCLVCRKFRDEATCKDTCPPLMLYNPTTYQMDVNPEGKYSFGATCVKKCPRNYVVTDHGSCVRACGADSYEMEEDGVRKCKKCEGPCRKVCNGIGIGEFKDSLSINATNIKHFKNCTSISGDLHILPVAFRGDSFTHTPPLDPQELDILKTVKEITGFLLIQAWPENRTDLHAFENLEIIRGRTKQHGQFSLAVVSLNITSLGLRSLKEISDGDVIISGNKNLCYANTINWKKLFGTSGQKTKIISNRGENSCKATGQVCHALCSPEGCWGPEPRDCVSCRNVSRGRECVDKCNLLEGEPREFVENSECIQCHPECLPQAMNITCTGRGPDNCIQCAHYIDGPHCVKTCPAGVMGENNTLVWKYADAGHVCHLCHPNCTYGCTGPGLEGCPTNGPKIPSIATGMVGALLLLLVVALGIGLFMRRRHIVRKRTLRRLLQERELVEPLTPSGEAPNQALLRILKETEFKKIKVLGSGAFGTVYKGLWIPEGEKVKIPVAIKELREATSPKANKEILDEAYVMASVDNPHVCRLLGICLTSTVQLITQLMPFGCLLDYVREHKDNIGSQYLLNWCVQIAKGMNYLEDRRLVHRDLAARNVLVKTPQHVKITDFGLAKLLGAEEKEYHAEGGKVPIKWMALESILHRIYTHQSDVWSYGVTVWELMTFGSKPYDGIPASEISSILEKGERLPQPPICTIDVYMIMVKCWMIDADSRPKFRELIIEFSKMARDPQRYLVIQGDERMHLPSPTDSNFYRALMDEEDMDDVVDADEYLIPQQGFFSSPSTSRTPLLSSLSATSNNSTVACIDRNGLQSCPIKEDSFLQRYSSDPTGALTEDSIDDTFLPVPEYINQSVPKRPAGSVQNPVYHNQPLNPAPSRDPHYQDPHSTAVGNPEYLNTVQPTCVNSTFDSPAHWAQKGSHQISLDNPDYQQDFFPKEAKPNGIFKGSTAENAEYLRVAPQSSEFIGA
Protocol: Enzyme-linked immunosorbent assays (ELISA) were performed to measure phosphorylated EGFR levels using A431 cells (10% FBS). A431 (1.0*10^4 cells/40 μl/well) cells were seeded in 384 well. Compounds were dissolved in DMSO, serially diluted in DMSO and then were added, mixed, and incubated for 4 hours at 37° C., 5% CO2. Following the 4-hours incubation, cells were stimulated for 10 minutes with EGF (Invitrogen, cat #PHG0311) at a final concentration of 30 ng/mL in the incubator. The media was aspirated and cells were lysed in 10 μL lysis buffer with protease and phosphatase inhibitors (PerkinElmer, cat #ALSU-PEGFR-A50K). The plates were placed on a shaker for 5 minutes and then incubated for 30 min at 4° C. for complete lysis. The lysate was transferred to an Optiplate (Perkin Elmer, cat #6007290).
Acceptor mix (PerkinElmer, cat #ALSU-PEGFR-A50K) was prepared just before use and 5 μL was dispensed to all the wells, followed by a 1.5-2 h incubation at room temperature in dark. The donor mix (PerkinElmer, cat #ALSU-PEGFR-A50K) was prepared under low light conditions prior to use and […] of donor mix was added to all the wells under subdued lighting or green filters. The plates were placed on a shaker for 5 min, sealed, and incubated overnight at room temperature in dark. Plates were read on the Envision (PerkinElmer) using standard AlphaLISA settings.
The percentage of inhibition on EGFR phosphorylation was calculated following equation: % Inhibition=100×(LumHC−LumSample)/(LumHC−LumLC). The low and high controls (LC/HC) are generated from lysate from wells with cells treated with DMSO or […] Staurosporine (BioAustralis, cat #BIA-S1086), […]. IC50 values were calculated by fitting the Curve using XLfit (v5.3.1.3), equation 201: Y=Bottom+(Top−Bottom)/(1+10^((Log IC50−X)*HillSlope)).

[3] = molecular target: Ba/F3 ERBB2 A775_G776insYVMA (Homo sapiens, UniProt P04626, DUP772-775, cells depend on it); assay: Cell viability assay, Ba/F3 ERBB2 A775_G776insYVMA; assay type: cell-based, mouse; conditions: Ba/F3 ERBB2 YVMA cells, cell viability, 72 hours, CellTiter Glo; Table B5; read-out: Ba/F3 ERBB2 YVMA, IC50
Ba/F3 ERBB2 A775_G776insYVMA, sequence (P04626 with tags, fused parts or gaps DUP772-775): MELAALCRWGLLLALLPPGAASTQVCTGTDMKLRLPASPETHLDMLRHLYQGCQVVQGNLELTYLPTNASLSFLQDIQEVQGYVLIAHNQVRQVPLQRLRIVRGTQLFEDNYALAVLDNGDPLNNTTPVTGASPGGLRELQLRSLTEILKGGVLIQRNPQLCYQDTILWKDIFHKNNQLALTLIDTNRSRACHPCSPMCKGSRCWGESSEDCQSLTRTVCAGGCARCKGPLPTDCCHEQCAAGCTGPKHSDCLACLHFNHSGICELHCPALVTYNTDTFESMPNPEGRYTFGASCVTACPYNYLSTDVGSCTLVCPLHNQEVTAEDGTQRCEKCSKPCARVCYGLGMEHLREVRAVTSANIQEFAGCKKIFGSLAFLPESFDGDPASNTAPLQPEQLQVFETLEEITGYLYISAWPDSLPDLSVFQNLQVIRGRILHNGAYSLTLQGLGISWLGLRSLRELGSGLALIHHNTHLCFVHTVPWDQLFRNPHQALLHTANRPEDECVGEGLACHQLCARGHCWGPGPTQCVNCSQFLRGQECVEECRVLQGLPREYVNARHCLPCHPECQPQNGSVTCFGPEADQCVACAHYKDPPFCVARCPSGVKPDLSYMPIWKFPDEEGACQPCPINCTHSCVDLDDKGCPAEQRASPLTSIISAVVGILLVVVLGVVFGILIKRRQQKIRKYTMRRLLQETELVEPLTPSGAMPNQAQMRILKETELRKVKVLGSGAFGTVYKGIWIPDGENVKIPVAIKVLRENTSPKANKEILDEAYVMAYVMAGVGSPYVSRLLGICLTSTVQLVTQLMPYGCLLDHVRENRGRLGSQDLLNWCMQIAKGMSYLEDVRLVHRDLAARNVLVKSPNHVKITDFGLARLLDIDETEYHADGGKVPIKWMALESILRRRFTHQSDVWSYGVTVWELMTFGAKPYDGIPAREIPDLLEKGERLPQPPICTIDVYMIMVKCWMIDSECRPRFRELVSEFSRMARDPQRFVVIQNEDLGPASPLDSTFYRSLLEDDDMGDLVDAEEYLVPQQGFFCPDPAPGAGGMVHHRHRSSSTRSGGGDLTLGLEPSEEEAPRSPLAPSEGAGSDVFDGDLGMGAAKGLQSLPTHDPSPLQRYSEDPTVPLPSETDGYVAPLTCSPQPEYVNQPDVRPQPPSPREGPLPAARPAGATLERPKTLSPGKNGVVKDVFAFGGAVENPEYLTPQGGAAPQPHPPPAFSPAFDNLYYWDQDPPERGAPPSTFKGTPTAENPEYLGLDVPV
Protocol: Cells were treated with compounds, and cell viability was measured as a metric of kinase inhibition.
The Ba/F3 cell line is IL-3-dependent mouse cell line derived from the C3H mouse strain. Ba/F3 cell lines were engineered to express human ERBB2 or EGFR kinases, rendering the cells IL-3 independent. The lines were generated via retroviral transduction utilizing a Moloney murine leukemia virus (MMLV) promoter, and constructs are stably integrated into the cell genome. The sequences of the ERBB2 and EGFR genes used were NCBI Reference Sequences NM_004448.3 and NM_005228.3, respectively.
Similarly, Ba/F3 cell lines engineered to express EGFR, ERBB2, or ERBB2 mutants were grown, harvested, counted and seeded at 3000 cells per well in 96-well plates. A subset of wells contained media only (low control, “LC”).
Table B1 provides the growth media and number of cells seeded per well for the each cell line.
Plates were placed in a 37° C., 5% CO2 incubator for 72 hours. Plates were then removed from the incubator and equilibrated for 15 minutes at room temperature. 40 μl of CellTiter Glo reagent (Promega) was added to measure the relative level of metabolically active cells by quantifying intracellular ATP concentrations. Plates were incubated for 30 minutes at room temperature, and luminescence was measured. […] Graphical curves were fitted using a nonlinear regression model with a sigmoidal dose response.

T1 sequence (P04626 23-1255): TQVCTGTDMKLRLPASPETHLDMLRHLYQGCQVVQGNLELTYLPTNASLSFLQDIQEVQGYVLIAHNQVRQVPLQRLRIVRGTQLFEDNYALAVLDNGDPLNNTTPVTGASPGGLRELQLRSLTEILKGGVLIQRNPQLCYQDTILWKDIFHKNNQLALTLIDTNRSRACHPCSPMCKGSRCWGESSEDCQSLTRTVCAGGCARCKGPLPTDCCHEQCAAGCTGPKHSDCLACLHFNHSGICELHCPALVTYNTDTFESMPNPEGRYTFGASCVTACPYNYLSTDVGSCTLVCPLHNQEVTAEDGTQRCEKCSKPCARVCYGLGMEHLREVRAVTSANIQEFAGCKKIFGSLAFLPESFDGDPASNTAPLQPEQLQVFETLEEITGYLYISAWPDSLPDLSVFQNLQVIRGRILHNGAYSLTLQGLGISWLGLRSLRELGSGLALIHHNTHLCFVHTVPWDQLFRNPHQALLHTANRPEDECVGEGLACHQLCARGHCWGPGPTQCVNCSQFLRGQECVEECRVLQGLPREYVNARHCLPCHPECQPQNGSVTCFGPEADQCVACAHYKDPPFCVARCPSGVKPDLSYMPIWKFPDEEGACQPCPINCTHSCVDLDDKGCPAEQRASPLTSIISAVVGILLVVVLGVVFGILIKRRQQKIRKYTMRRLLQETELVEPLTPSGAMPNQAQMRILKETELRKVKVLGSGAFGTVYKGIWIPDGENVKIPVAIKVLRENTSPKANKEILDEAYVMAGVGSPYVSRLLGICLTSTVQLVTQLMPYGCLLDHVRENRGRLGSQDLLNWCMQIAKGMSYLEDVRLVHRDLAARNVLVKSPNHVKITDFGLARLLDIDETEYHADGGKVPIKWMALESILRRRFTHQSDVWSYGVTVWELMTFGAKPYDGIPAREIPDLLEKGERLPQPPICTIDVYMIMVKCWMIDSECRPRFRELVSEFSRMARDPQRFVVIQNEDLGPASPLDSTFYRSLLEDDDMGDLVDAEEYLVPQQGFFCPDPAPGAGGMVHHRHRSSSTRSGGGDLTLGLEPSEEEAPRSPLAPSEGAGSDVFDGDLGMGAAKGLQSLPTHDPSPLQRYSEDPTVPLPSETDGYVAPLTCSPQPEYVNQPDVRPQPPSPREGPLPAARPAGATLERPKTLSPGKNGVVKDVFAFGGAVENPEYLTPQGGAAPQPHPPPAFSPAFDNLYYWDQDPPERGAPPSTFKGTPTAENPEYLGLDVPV

Structure (SMILES) | IC50 [1] [nM] | IC50 [2] [nM] | GI50 [3] [nM]
Cc1cc(Nc2ncnc3ccc(N4CCC(=CCN(C)C)C4=O)cc23)ccc1Oc1ccn2ncnc2c1 (single isomer, unassigned) [Compound 17, (Z)-3-[2-(dimethylamino)ethylidene]-1-[4-[(3-methyl-4-[[1,2,4]triazolo[1,5-a]pyridin-7-yloxy]phenyl)amino]quinazolin-6-yl]pyrrolidin-2-one] | 19.7 | > 10000 | 
CC1CN(c2cc3c(Nc4ccc(Oc5ccc6c(c5)nnn6C)cc4)ncnc3cn2)C(=O)/C1=C/CN(C)C (single isomer, unassigned) [Compound 136] | 72.6 | 1670 | 18
CC1CN(c2cc3c(Nc4ccc(Oc5ccc6c(c5)nnn6C)cc4)ncnc3cn2)C(=O)/C1=C/CN(C)C (single isomer, unassigned) [Compound 137] | 4110 | > 10000 | 473
C=C1CCN(c2ccc3ncnc(Nc4ccc(Sc5ccn6ncnc6c5)c(C)c4)c3c2)C1=O [Compound 13, 1-[4-[(3-methyl-4-[[1,2,4]triazolo[1,5-a]pyridin-7-ylsulfanyl]phenyl)amino]quinazolin-6-yl]-3-methylidenepyrrolidin-2-one] | 12.5 | 571 | 
C=C1C(=O)N(c2ccc3ncnc(Nc4ccc(Oc5ccn6ncnc6c5)c(C)c4)c3c2)C[C@@H]1C [Compound 19, (R)-1-(4-((4-([1,2,4]triazolo[1,5-a]pyridin-7-yloxy)-3-methylphenyl)amino)quinazolin-6-yl)-4-methyl-3-methylenepyrrolidin-2-one] | 25.2 | 5630 | 
C=C1C(=O)N(c2ccc3ncnc(Nc4ccc(Oc5ccn6ncnc6c5)c(C)c4)c3c2)C[C@H]1C [Compound 20, (S)-1-(4-(4-([1,2,4]triazolo[1,5-a]pyridin-7-yloxy)-3-methylphenylamino)quinazolin-6-yl)-4-methyl-3-methylenepyrrolidin-2-one] | 12 | 586 | 
C=C1CCN(c2ccc3ncnc(Nc4ccc(Oc5ccn6ncnc6c5)c(C)c4)c3n2)C1=O [Compound 23, 1-{4-[(3-methyl-4-{[1,2,4]triazolo[1,5-a]pyridin-7-yloxy}phenyl)amino]pyrido[3,2-d]pyrimidin-6-yl}-3-methylidenepyrrolidin-2-one] | 23.2 | 6150 | 

Second part, led by results:

IC50 [1] [nM] | IC50 [2] [nM] | Structure (SMILES) | GI50 [3] [nM]
20.8 | 538 | C=C1C(=O)N(c2ccc3ncnc(Nc4ccc(Oc5ccn6ncnc6c5)c(C)c4)c3c2)C2CC12 (single isomer, unassigned) [Example S21, Enantiomer # 1, 2-{4-[(3-methyl-4-{[1,2,4]triazolo[1,5-a]pyridin-7-yloxy}phenyl)amino]quinazolin-6-yl}-4-methylidene-2-azabicyclo[3.1.0]hexan-3-one] | 
22.3 | 1980 | C=C1C(=O)N(c2ccc3ncnc(Nc4ccc(Oc5ccn6ncnc6c5)c(C)c4)c3c2)C2CC12 (single isomer, unassigned) [Example S21, Enantiomer # 2, 2-{4-[(3-methyl-4-{[1,2,4]triazolo[1,5-a]pyridin-7-yloxy}phenyl)amino]quinazolin-6-yl}-4-methylidene-2-azabicyclo[3.1.0]hexan-3-one] | 
23.2 | 1090 | C=C1C(=O)N(c2ccc3ncnc(Nc4ccc(Oc5ccc6c(c5)ncn6C)c(C)c4)c3c2)C2CC12 (single isomer, unassigned) [Example S33, Enantiomer # 1, 2-[4-({3-methyl-4-[(1-methyl-1,3-benzodiazol-5-yl)oxy]phenyl}amino)quinazolin-6-yl]-4-methylidene-2-azabicyclo[3.1.0]hexan-3-one] | 7.57
24.9 | 520 | C=C1C(=O)N(c2ccc3ncnc(Nc4ccc(Oc5ccc6c(c5)ncn6C)c(C)c4)c3c2)C2CC12 (single isomer, unassigned) [Example S33, Enantiomer # 2, 2-[4-({3-methyl-4-[(1-methyl-1,3-benzodiazol-5-yl)oxy]phenyl}amino)quinazolin-6-yl]-4-methylidene-2-azabicyclo[3.1.0]hexan-3-one] | 7.6
36.6 | 6100 | C=C1C(=O)N(c2ccc3ncnc(Nc4ccc(Cc5ccn6ncnc6c5)c(C)c4)c3c2)C2CC12 (single isomer, unassigned) [Example S79, Enantiomer #1, 2-(4-((4-([1,2,4]triazolo[1,5-a]pyridin-7-ylmethyl)-3-methylphenyl)amino)quinazolin-6-yl)-4-methylene-2-azabicyclo[3.1.0]hexan-3-one] | 32.1
15.3 | 798 | C=C1C(=O)N(c2ccc3ncnc(Nc4ccc(Cc5ccn6ncnc6c5)c(C)c4)c3c2)C2CC12 (single isomer, unassigned) [Example S79, Enantiomer #2, 2-(4-((4-([1,2,4]triazolo[1,5-a]pyridin-7-ylmethyl)-3-methylphenyl)amino)quinazolin-6-yl)-4-methylene-2-azabicyclo[3.1.0]hexan-3-one] | 13.7
11.5 | 574 | Cc1cc(Nc2ncnc3cnc(N4CC(C)/C(=C\CN(C)C)C4=O)cc23)ccc1Oc1ccc2c(c1)nnn2C (single isomer, unassigned) [Example S86, Enantiomer #1, (3E)-3-[2-(dimethylamino)ethylidene]-4-methyl-1-[4-({3-methyl-4-[(1-methyl-1,2,3-benzotriazol-5-yl)oxy]phenyl}amino)pyrido[3,4-d]pyrimidin-6-yl]pyrrolidin-2-one] | 2.59
138 | > 10000 | Cc1cc(Nc2ncnc3cnc(N4CC(C)/C(=C\CN(C)C)C4=O)cc23)ccc1Oc1ccc2c(c1)nnn2C (single isomer, unassigned) [Example S86, Enantiomer #2, (3E)-3-[2-(dimethylamino)ethylidene]-4-methyl-1-[4-({3-methyl-4-[(1-methyl-1,2,3-benzotriazol-5-yl)oxy]phenyl}amino)pyrido[3,4-d]pyrimidin-6-yl]pyrrolidin-2-one] | 240
